Structures are written as SMILES.

human SGLT2, sequence (P31639 whole entry): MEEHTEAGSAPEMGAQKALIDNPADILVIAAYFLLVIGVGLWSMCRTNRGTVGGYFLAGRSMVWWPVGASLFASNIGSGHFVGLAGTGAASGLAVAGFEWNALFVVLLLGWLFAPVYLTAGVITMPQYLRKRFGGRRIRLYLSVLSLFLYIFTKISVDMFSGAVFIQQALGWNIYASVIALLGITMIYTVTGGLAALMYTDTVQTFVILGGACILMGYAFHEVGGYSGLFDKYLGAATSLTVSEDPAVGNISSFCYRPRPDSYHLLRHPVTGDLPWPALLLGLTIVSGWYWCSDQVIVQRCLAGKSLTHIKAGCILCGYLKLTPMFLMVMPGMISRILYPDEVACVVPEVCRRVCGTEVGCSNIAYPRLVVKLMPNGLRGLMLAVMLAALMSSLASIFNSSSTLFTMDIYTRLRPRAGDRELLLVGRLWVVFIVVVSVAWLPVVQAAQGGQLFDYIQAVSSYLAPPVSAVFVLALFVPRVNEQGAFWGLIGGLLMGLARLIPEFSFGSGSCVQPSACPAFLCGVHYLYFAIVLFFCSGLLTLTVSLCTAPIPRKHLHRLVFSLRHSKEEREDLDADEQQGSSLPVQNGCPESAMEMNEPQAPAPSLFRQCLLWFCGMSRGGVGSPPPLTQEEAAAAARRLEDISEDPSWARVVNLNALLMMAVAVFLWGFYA

The target in this test is human SGLT2 (Homo sapiens (Human), UniProt P31639). Put plainly: Inhibitory effects on human SGLT2 activities (14C-AMG uptake, sodium-dependent glucose transport assay). Type of test: cell-based. To be noted: CHO cells stably expressing hSGLT2, 37° C., 2 h, single determinations. The source says:
Test 1: Cloning and Cell Line Construction for Human SGLT2
Human SGLT2 (hSGLT2) gene was amplified by PCR from cDNA-Human Adult Normal Tissue Kidney (Invitrogen). The hSGLT2 sequence was cloned into pcDNA3.1(+) for mammalian expression and stably transfected into chinese hamster ovary (CHO) cells. SGLT2-expressing clones were selected based on resistance to G418 antibiotic (Geneticin) and activity in the ^14C-α-methyl-D-glucopyranoside (^14C-AMG) uptake assay.
Test 2: Inhibitory Effects on Human SGLT2 Activities
For sodium-dependent glucose transport assay, cells expressing hSGLT2 were seeded into a 96-well culture plate at a density of 5×10^4 cells/well in RPMI medium 1640 containing 10% fetal bovine serum. The cells were used 1 day after plating. They were incubated in pretreatment buffer (10 mM HEPES, 5 mM Tris, 140 mM choline chloride, 2 mM KCl, 1 mM CaCl2, and 1 mM MgCl2, pH 7.4) at 37° C. for 10 min. They were then incubated in uptake buffer (10 mM HEPES, 5 mM Tris, 140 mM NaCl, 2 mM KCl, 1 mM CaCl2, 1 mM MgCl2, and 1 mM ^14C-nonlabeled AMG pH 7.4) containing ^14C-labeled AMG (8 μM) and the inventive compound or dimethyl sulfoxide (DMSO) vehicle at 37° C. for 2 h. Cells were washed twice with washing buffer (pretreatment buffer containing 10 mM AMG at room temperature) and then the radioactivity was measured using a liquid scintillation counter. IC50 was determined by nonlinear regression analysis using GraphPad PRISM [Katsuno, K. et al. J. Pharmacol. Exp. Ther. 2007, 320, 323-330; Han, S. et al. Diabetes, 2008, 57, 1723-1729].
`Cn1cc2cc(Cc3cc([C@@H]4O[C@H](CO)[C@@H](O)[C@H](O)[C@H]4O)ccc3Cl)ccc2n1` [Example E036, (2S,3R,4R,5S,6R)-2-(4-Chloro-3-((2-methyl-2H-indazol-5-yl)methyl)phenyl)-6-(hydroxymethyl)tetrahydro-2H-pyran-3,4,5-triol]: the IC50 (as a rule, the concentration needed to halve the response being measured) amounted to 2.31 nM.

Turning to `OC[C@H]1O[C@@H](c2cc(Cc3ccc4c(c3)OCCO4)c(Cl)c3c2CCC3)[C@H](O)[C@@H](O)[C@@H]1O` [Example E106, (2S,3R,4R,5S,6R)-2-(7-Chloro-6-((2,3-dihydrobenzo[b][1,4]dioxin-6-yl)methyl)-2,3-dihydro-1H-inden-4-yl)-6-(hydroxymethyl)tetrahydro-2H-pyran-3,4,5-triol], half-maximal inhibition (IC50) required 0.616 nM.

Regarding `CCOc1ccc(Cc2cc([C@@H]3O[C@H](CO)[C@@H](O)[C@H](O)[C@H]3O)cc(-c3cccs3)c2C)cc1` [Example E090, (2S,3R,4R,5S,6R)-2-(3-(4-Ethoxybenzyl)-4-methyl-5-(thiophen-2-yl)phenyl)-6-(hydroxymethyl)-tetrahydro-2H-pyran-3,4,5-triol], half-maximal inhibition (IC50) was put at 3.73 nM.

`C=CCOc1cc(Cl)c(Cc2ccc(OC)cc2)cc1[C@@H]1O[C@H](SC)[C@@H](O)[C@H](O)[C@H]1O` [Example E110, (2S,3R,4R,5S,6R)-2-(2-(Allyloxy)-4-chloro-5-(4-methoxybenzyl)phenyl)-6-(methylthio)tetrahydro-2H-pyran-3,4,5-triol] gave an IC50 of 0.504 nM.

For `N#Cc1ccc(Cc2cc([C@@H]3O[C@H](CO)[C@@H](O)[C@H](O)[C@H]3O)c3c(c2Cl)OCC3)cc1` [Example E186, 4-((7-Chloro-4-((2S,3R,4R,5S,6R)-3,4,5-trihydroxy-6-(hydroxymethyl)tetrahydro-2H-pyran-2-yl)-2,3-dihydrobenzofuran-6-yl)methyl)benzonitrile], half-maximal inhibition (IC50) was put at 6.06 nM.

Compound `CC1Cc2c([C@@H]3O[C@H](CO)[C@@H](O)[C@H](O)[C@H]3O)cc(Cc3ccc(C(C)C)cc3)c(Cl)c2O1` (stereo partly drawn) [Example E150, (2S,3R,4R,5S,6R)-2-(7-Chloro-6-(4-isopropylbenzyl)-2-methyl-2,3-dihydrobenzofuran-4-yl)-6-(hydroxymethyl)tetrahydro-2H-pyran-3,4,5-triol] registered an IC50 of 1.44 nM.

In turn, `CN(C)c1ccc(Cc2cc([C@@H]3O[C@H](CO)[C@@H](O)[C@H](O)[C@H]3O)c3c(c2Cl)OCC3)cc1` [Example E190, (2S,3R,4R,5S,6R)-2-(7-Chloro-6-(4-(dimethylamino)benzyl)-2,3-dihydrobenzofuran-4-yl)-6-(hydroxymethyl)tetrahydro-2H-pyran-3,4,5-triol] showed an IC50 of 1.11 nM.

Consider `Cc1ccc([C@@H]2O[C@H](CO)[C@@H](O)[C@H](O)[C@H]2O)cc1Cc1ccc2c(c1)OCCO2` [Example E054, (2S,3R,4R,5S,6R)-2-(3-((2,3-Dihydrobenzo[b][1,4]dioxin-6-yl)methyl)-4-methylphenyl)-6-(hydroxymethyl)-tetrahydro-2H-pyran-3,4,5-triol], for which the IC50 is 2.02 nM.

In the case of `CC1Cc2c(Cl)c(Cc3ccc(C4CC4)cc3)cc([C@@H]3O[C@H](CO)[C@@H](O)[C@H](O)[C@H]3O)c2O1` (stereo partly drawn) [Example E133, (2S,3R,4R,5S,6R)-2-(4-Chloro-5-(4-cyclopropylbenzyl)-2-methyl-2,3-dihydrobenzofuran-7-yl)-6-(hydroxymethyl)tetrahydro-2H-pyran-3,4,5-triol], the midpoint of inhibition, the IC50, lay at 1.11 nM.

The compound `CCc1ccc(Cc2cc([C@@H]3O[C@H](CO)[C@@H](O)[C@H](O)[C@H]3O)c3c(c2Cl)OCC3C)cc1` (stereo partly drawn) [Example E153, (2S,3R,4R,5S,6R)-2-(7-Chloro-6-(4-ethylbenzyl)-3-methyl-2,3-dihydrobenzofuran-4-yl)-6-(hydroxymethyl)tetrahydro-2H-pyran-3,4,5-triol] registered an IC50 of 0.721 nM.

For `COc1ccc(Cc2cc([C@@H]3O[C@H](CO)[C@@H](O)[C@H](O)[C@H]3O)c3c(c2Cl)OCO3)cc1` [Example E161, (2S,3R,4R,5S,6R)-2-(7-Chloro-6-(4-methoxybenzyl)benzo[d][1,3]dioxol-4-yl)-6-(hydroxymethyl)tetrahydro-2H-pyran-3,4,5-triol], half-maximal inhibition (IC50) required 1.15 nM.

`CCOc1ccc(Cc2cc([C@@H]3O[C@H](CO)[C@@H](O)[C@H](O)[C@H]3O)c3c(c2Cl)OCCO3)cc1` [Example E013, (2S,3R,4R,5S,6R)-2-(8-Chloro-7-(4-ethoxybenzyl)-2,3-dihydrobenzo[b][1,4]dioxin-5-yl)-6-(hydroxymethyl)tetrahydro-2H-pyran-3,4,5-triol] came in with an IC50 of 1.27 nM. This IC50 and that of the compound before are within 1.5-fold of each other.

Consider `OC[C@H]1O[C@@H](c2ccc(Cl)c(Cc3ccc(N4CCCC4)cc3)c2)[C@H](O)[C@@H](O)[C@@H]1O` [Example E221], for which inhibition was half-maximal at 2.17 nM (IC50). Compared with the last compound, the IC50 is about 1.7-fold higher.

The compound `COc1ccc(Cc2cc([C@@H]3O[C@H](CO)[C@@H](O)[C@H](O)[C@H]3O)c3c(c2Cl)OCC3)s1` [Example E207, (2S,3R,4R,5S,6R)-2-(7-Chloro-6-((5-methoxythiophen-2-yl)methyl)-2,3-dihydrobenzofuran-4-yl)-6-(hydroxymethyl)tetrahydro-2H-pyran-3,4,5-triol] yielded an IC50 of 3.75 nM.

Compound `OC[C@H]1O[C@@H](c2ccc(Cl)c(Cc3ccc4c(c3)COCO4)c2)[C@H](O)[C@@H](O)[C@@H]1O` [Example E068, (2S,3R,4R,5S,6R)-2-(3-((4H-Benzo[d][1,3]dioxin-6-yl)methyl)-4-chlorophenyl)-6-(hydroxymethyl)-tetrahydro-2H-pyran-3,4,5-triol] showed a concentration for half-maximal inhibition (IC50) of 9.47 nM.

The compound `CCOc1ccc(Cc2cc([C@@H]3O[C@H](CO)[C@@H](O)[C@H](O)[C@H]3O)c3c(c2Cl)OCCCO3)cc1` [Example E164, (2S,3R,4R,5S,6R)-2-(9-Chloro-8-(4-ethoxybenzyl)-3,4-dihydro-2H-benzo[b][1,4]dioxepin-6-yl)-6-(hydroxymethyl)tetrahydro-2H-pyran-3,4,5-triol] showed an IC50 of 1.28 nM.

Consider `CC1Cc2c(Cl)c(Cc3ccc(C(C)C)cc3)cc([C@@H]3O[C@H](CO)[C@@H](O)[C@H](O)[C@H]3O)c2O1` (stereo partly drawn) [Example E149, (2S,3R,4R,5S,6R)-2-(4-Chloro-5-(4-isopropylbenzyl)-2-methyl-2,3-dihydrobenzofuran-7-yl)-6-(hydroxymethyl)tetrahydro-2H-pyran-3,4,5-triol], for which the IC50 was determined as 1.8 nM.

Turning to `CCOc1ccc(Cc2cc([C@@H]3O[C@H](CO)[C@@H](O)[C@H](O)[C@H]3O)c3c(c2Cl)CC(C)(C)O3)cc1` [Example E220, (2S,3R,4R,5S,6R)-2-(4-Chloro-5-(4-ethoxybenzyl)-2,2-dimethyl-2,3-dihydrobenzofuran-7-yl)-6-(hydroxymethyl)tetrahydro-2H-pyran-3,4,5-triol], the IC50 was 1.27 nM.

The compound `CCn1ncc2cc(Cc3cc([C@@H]4O[C@H](CO)[C@@H](O)[C@H](O)[C@H]4O)ccc3Cl)ccc21` [Example E037, (2S,3R,4R,5S,6R)-2-(4-Chloro-3-((1-ethyl-1H-indazol-5-yl)methyl)phenyl)-6-(hydroxymethyl)tetrahydro-2H-pyran-3,4,5-triol] gave an IC50 of 1.58 nM.

For `C=Cc1ccc(Cc2cc([C@@H]3O[C@H](CO)[C@@H](O)[C@H](O)[C@H]3O)c3c(c2Cl)OCC3)cc1` [Example E171, (2S,3R,4R,5S,6R)-2-(7-Chloro-6-(4-vinylbenzyl)-2,3-dihydrobenzofuran-4-yl)-6-(hydroxymethyl)tetrahydro-2H-pyran-3,4,5-triol], half-maximal inhibition (IC50) was put at 0.366 nM.

In turn, `Cc1c(Cc2ccc3c(c2)OCCO3)cc([C@@H]2O[C@H](CO)[C@@H](O)[C@H](O)[C@H]2O)c2c1CCC2` [Example E107, (2S,3R,4R,5S,6R)-2-(6-((2,3-Dihydrobenzo[b][1,4]dioxin-6-yl)methyl)-7-methyl-2,3-dihydro-1H-inden-4-yl)-6-(hydroxymethyl)tetrahydro-2H-pyran-3,4,5-triol] registered an IC50 of 0.86 nM.

As to `CCOc1ccc(Cc2cc([C@@H]3O[C@H](CO)[C@@H](O)[C@H](O)[C@H]3O)cc(-c3ccccc3Cl)c2C)cc1` [Example E086, (2S,3R,4R,5S,6R)-2-(6′-Chloro-5-(4-ethoxybenzyl)-6-methylbiphenyl-3-yl)-6-(hydroxymethyl)-tetrahydro-2H-pyran-3,4,5-triol], 15.4 nM corresponded to half-maximal inhibition (IC50). This IC50 is about 18-fold higher than that of the compound before.

For the compound `COc1cc([C@@H]2O[C@H](CO)[C@@H](O)[C@H](O)[C@H]2O)cc(Cc2ccc3c(c2)OCCO3)c1Cl` [Example E043, (2S,3R,4R,5S,6R)-2-(4-Chloro-3-((2,3-dihydrobenzo[b][1,4]dioxin-6-yl)methyl)-5-methoxyphenyl)-6-(hydroxymethyl)tetrahydro-2H-pyran-3,4,5-triol], the IC50 was 2.68 nM.

As for `CCn1cc2cc(Cc3cc([C@@H]4O[C@H](CO)[C@@H](O)[C@H](O)[C@H]4O)ccc3Cl)ccc2n1` [Example E038, (2S,3R,4R,5S,6R)-2-(4-Chloro-3-((2-ethyl-2H-indazol-5-yl)methyl)phenyl)-6-(hydroxymethyl)tetrahydro-2H-pyran-3,4,5-triol], the IC50 is 1.76 nM. Against the preceding compound, the IC50 is about 1.5-fold lower.

Turning to `CCOc1ccc(Cc2cc([C@@H]3O[C@H](CO)[C@@H](O)[C@H](O)[C@H]3O)cc(-c3ccccc3)c2C)cc1` [Example E077], the IC50 came to 3.84 nM.
